Structures can show the parent of a compound that is named as a salt.
Columns and labels:
Assay type in all cases: in vivo
[1] = Acute toxicity per intraperitoneal route (LD50, method of Litchfield and Wilcoxon; Gleason classification); details: in vivo, ip; Swiss male mouse, suspension in 1% carboxymethylcellulose, observation 8 days
Protocol: (§1) The acute toxicity was assessed in the mouse of the Swiss type, having an average body weight of 20 g and of male sex, groups of 5 animals being used, according to the method of Litchfield and Wilcoxon (observation time: 8 days). The compounds were administered as a suspension in 1% carboxymethylcellulose.
(§2) The acute toxicity was low for all the examined compounds, as confirmed by the following table, in which those of the vincamine HCl and of the apovincamine are also reported.
(§3) In fact, for all the compounds, the toxicity, when evaluated according to the method of Gleason, can be classified as light, modest or negligible.

vertebral arteria = test: Variation of the hematic flow at the vertebral arteria after i.v. administration (cerebral vasodilating activity); details: anestetized dog, i.v. (femoral vein) 5 mg/kg, left vertebral arteria, electromagnetic flowmeters
Excerpt: The cerebral vasodilating activity was studied in the anestetized dog, by measuring, by means of Statham periarterial electromagnetic flowmeters, the hematic flow at the level of the vertebral arteria which, in such animal species, constitutes the greatest blood supply to the brain.
The results are reported in the TABLE as the percent variations of the flow measured at the level of the left vertebral arteria after the administration of the several compounds to be tested to groups of 4 animals for each compound. The results also confirm that the compounds of the invention are all endowed with a vasodilating activity at the level of the cerebral circulus. Such an action for some compounds is more relevant with respect to that of vincamine and of apovincamine.

mouse of the Swiss type = test: Acute toxicity per intraperitoneal route (LD50, method of Litchfield and Wilcoxon; Gleason classification); details: Gleason toxicity class, mouse i.p.
Protocol: as §1, §2, §3

[2] = Absorption: hematic levels at different times from the oral administration; details: blood, 100 mg/kg expressed as vincamine and apovincamine, suspension in 5% carboxymethyl cellulose, chromatographic method, read-out: max. conc. time (converted)
Protocol: All the compounds have been orally administered at the dosage of 100 mg/kg, expressed as vincamine and apovincamine, in form of a suspension in a 5% carboxymethyl cellulose solution.
The absorption was determined by evaluating the hematic levels at the following times (minutes): 0, 30, 120, 240, 480, 10 hours and 12 hours, at which it was possible to assess the time, from the administration, of the maximum hematic concentration.
The vincamine and apovincamine concentrations were assessed by chromatographic method.
For the evaluation of the prolonged action the following criterium was adopted; as derivatives having a long-acting effect, there are considered those which, 120 minutes after the administration, show hematic levels higher than those obtained with vincamine and apovincamine.

Structure (SMILES) | LD50 at 192 h [1] [mg/kg] | Percent variations of the hematic flow at the vertebral arteria (vertebral arteria) | Tox (Gleason) (mouse of the Swiss type) | Tmax [2] [min]
CC[C@]12CCCN3CC(=O)c4c(n(c5ccccc45)[C@@](O)(C(=O)OC)C1)[C@@H]32 [6-ketovincamine] | > 2000 | +28.4% | – | –
CC[C@]12CCCN3CC(O)c4c(n(c5ccccc45)C(O)(C(=O)OC)C1)[C@@H]32 (some centres unmarked) [6-hydroxyvincamine] | 900 | +33.4% | modest | –
CC[C@]12CCCN3CCc4c(n(c5ccccc45)[C@@](O)(C(=O)OC)C1)[C@@H]32 [Vincamine HCl, reference compound] | 800 | +24.1% | modest | 20
CC[C@@]12C=C(C(=O)OC)n3c4c(c5ccccc53)C(=O)CN(CCC1)[C@H]42 [6-ketoapovincamine] | > 2000 | +29.2% | – | –
CC[C@]12CCCN3CC(=O)c4c(n(c5ccccc45)C(=O)C1)[C@@H]32 [6-ketovincamone] | > 2000 | +30.2% | – | –
CC[C@@]12C=C(C(=O)OC)n3c4c(c5ccccc53)CCN(CCC1)[C@H]42 [Apovincamine, reference compound] | > 2000 | +25.6% | negligible | 60
CC[C@]12CCCN3CC(=O)c4c(n(c5ccccc45)C(O)(CO)C1)[C@@H]32 (some centres unmarked) [6-ketovincaminol] | 1500 | +30.2% | light | –
CC[C@]12CCCN3CC(=O)c4c(n(c5ccccc45)[C@](O)(C(=O)OC)C1)[C@@H]32 [6-keto-16-epivincamine] | > 2000 | +35.7% | negligible | –

From patent publication US4140777A, “Cerebral vasodilating 6-substituted vincamines” (Enrico Corvi Mora, priority 1976, dated 1979)
